The values below come from patent US9045491B2, “Thienyl [3,2-D] pyrimidin-4-one compounds, preparation method, pharmaceutical compositions and use thereof” (SHANGHAI INSTITUTE OF MATERIA MEDICA, CHINESE ACADEMY OF …, priority 2011, dated 2015).

Common to all, as to format: biochemical
Assay [1] concerns the target T1, human DPP IV (Homo sapiens, UniProt P27487).
T1 construct: extracellular fragment of protease DPP IV (aa29-766); made in house; host or cells: baculovirus expression system Bac-to-Bac
Put plainly: DPP IV activity screening (Ala-Pro-AMC fluorescence). How it is done: (§1) Screening method: dipeptidyl peptidase IV (DPP IV) activity screening, dipeptidyl peptidase 7 (DPP 7), dipeptidyl peptidase 8 (DPP 8) activity screening, and dipeptidyl peptidase 9 (DPP 9) activity screening.
Instruments: Microplate Reader (PerkinElmer, USA).
The linear change of fluorescence value at 460 nm in unit time was dynamically measured and DPP IV activity was obtained by calculation.
(§2) Sample treatment: the sample was dissolved in DMSO and stored in low temperature. The concentration of DMSO in the final system was controlled so that the detected activity was not affected.
(§3) The activity of sample was tested under the selected single concentration from preliminary screening, for example, 20 μg/mL. […] The software for calculation was Graphpad Prism 4 and the model used for fitting was sigmoidal dose-response (variable slope). For most inhibitor screening models, the bottom and top of the fitting curve were set to 0 and 100.

For assay [2], the target named is dipeptidyl peptidase 7 (DPP 7) (Homo sapiens, UniProt Q9UHL4). Description: DPP 7 activity screening. The note with it: N.I. = No Inhibition. How it is done: as §1, §2, §3
Assay [3] concerns the target T2, human DPP 8 (Homo sapiens, UniProt Q6V1X1).
T2 construct: made in house; host or cells: insect cells, baculovirus Bac-to-Bac
Description: DPP 8 activity screening (Ala-Pro-AMC fluorescence). Particulars: N.I. = No Inhibition.
Text: as §1
(§4) Materials: human DPP IV, obtained extracellular fragment of protease DPP IV (aa29-766), was expressed and purified by our laboratory using baculovirus expression system Bac-to-Bac (purchased from GIBCO company) in accordance with the conventional experimental technology; human DPP 8 was obtained in insect cells by our laboratory using baculovirus expression system Bac-to-Bac (purchased from GIBCO company) in accordance with the conventional experimental technology; Human DPP 9 was obtained in insect cells by our laboratory using baculovirus expression system Bac-to-Bac (purchased from GIBCO company) in accordance with the conventional experimental technology; and the substrate Ala-Pro-AMC was synthesized by GL Biochem (Shanghai) Ltd.
(§5) Principle of Activity test: DPP IV, DPP 8 and DPP 9 can specifically hydrolyze the substrate Ala-Pro-AMC to form product AMC, and AMC is excited by 355 nm of UV light to generate 460 nm of emission light. The linear change of fluorescence value at 460 nm in unit time was dynamically measured and DPP IV activity was obtained by calculation.
as §2, §3

For assay [4], the target named is T3, Human DPP 9 (Homo sapiens, UniProt Q86TI2).
T3 construct: made in house; host or cells: insect cells, baculovirus Bac-to-Bac
T3 sequence (Q86TI2 whole entry): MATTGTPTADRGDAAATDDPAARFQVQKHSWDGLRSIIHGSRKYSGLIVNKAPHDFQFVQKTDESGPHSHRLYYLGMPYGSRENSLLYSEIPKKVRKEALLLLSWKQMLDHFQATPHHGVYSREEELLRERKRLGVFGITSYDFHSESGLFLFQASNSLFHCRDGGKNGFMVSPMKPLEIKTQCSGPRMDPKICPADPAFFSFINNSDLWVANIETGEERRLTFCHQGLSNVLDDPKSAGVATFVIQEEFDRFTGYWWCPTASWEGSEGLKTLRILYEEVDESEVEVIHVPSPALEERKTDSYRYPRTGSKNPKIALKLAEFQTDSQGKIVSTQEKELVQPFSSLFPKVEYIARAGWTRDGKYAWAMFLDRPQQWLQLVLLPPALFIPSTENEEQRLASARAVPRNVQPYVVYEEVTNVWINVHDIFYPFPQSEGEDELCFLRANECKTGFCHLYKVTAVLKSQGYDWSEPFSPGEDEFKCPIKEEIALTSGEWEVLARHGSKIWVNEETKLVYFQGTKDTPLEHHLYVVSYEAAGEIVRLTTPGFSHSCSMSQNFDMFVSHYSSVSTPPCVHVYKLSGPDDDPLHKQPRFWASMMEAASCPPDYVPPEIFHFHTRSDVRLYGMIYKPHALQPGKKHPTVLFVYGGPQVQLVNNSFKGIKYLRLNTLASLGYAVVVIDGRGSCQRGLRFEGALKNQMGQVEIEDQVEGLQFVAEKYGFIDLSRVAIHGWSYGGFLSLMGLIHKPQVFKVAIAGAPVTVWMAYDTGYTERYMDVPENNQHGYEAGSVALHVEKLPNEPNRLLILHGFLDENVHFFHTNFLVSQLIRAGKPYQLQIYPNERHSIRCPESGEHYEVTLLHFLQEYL
Description: DPP 9 activity screening (Ala-Pro-AMC fluorescence). The note with it: N.I. = No Inhibition.
Text: as §1, §4, §5, §2, §3

T1 sequence (P27487 29-766): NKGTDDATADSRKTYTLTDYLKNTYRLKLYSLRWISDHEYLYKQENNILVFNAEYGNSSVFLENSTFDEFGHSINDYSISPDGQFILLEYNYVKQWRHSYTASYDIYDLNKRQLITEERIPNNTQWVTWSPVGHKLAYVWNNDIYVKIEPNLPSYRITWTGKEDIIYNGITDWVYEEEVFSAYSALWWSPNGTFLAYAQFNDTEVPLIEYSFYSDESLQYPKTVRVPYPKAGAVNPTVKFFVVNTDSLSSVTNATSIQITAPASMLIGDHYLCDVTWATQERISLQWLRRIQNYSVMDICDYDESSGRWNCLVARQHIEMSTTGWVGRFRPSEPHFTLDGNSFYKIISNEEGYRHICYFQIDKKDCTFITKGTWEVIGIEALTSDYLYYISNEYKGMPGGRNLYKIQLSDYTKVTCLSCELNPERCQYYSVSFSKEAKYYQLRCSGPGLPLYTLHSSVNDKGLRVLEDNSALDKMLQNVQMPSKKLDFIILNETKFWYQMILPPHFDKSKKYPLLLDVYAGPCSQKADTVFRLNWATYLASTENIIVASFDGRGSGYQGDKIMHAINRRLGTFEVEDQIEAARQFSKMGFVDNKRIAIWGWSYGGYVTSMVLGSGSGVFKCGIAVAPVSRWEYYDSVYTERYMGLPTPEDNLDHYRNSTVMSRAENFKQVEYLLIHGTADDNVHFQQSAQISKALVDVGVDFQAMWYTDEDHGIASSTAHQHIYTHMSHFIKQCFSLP
T2 sequence (Q6V1X1 whole entry): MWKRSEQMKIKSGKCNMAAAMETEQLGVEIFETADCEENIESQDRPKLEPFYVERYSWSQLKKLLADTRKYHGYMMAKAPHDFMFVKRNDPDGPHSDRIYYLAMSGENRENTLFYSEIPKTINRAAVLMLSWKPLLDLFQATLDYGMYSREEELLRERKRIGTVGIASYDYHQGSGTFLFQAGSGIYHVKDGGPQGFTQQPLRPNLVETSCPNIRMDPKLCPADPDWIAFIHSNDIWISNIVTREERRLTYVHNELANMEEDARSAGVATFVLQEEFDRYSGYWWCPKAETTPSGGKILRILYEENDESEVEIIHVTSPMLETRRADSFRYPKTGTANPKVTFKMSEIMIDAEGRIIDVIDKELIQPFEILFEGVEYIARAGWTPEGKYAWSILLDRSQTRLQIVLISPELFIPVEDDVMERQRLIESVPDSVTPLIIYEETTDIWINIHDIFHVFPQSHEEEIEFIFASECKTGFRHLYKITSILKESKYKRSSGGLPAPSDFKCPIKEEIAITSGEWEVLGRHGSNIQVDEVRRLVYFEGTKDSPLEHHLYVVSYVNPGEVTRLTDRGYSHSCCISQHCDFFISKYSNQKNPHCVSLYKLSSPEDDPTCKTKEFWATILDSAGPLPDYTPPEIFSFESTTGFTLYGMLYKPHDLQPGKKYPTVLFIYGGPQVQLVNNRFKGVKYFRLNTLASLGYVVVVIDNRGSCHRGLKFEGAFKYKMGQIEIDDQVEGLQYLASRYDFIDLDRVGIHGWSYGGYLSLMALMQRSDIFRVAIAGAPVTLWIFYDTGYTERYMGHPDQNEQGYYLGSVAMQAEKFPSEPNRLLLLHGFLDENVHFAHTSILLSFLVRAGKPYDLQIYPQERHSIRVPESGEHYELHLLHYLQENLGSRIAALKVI

As for `CS(=O)(=O)CCNC(=O)c1csc2c(=O)n(Cc3ccccc3C#N)c(N3CCC[C@@H](N)C3)nc12` [Compound 90, (R)-2-(3-aminopiperidin-1-yl)-3-(2-cyanobenzyl)-N-(2-(methylsulfonyl)-ethyl)-4-oxo-3,4-dihydrothieno[3,2-d]-pyrimidine-7-carboxamide], the IC50 (commonly the midpoint of a concentration-inhibition curve) in assay [1] came out at 14.3 nM; in assay [3], 102000 nM. In addition, the “DPP 7 IC50” value in assay [2] was “N.I”. Besides, the “DPP 9 IC50” value in assay [4] is “N.I”.
As to `N#Cc1ccccc1Cn1c(N2CCC[C@@H](N)C2)nc2cc(C(=O)N3CCC(CO)CC3)sc2c1=O` [Compound 124, (R)-2-((2-(3-aminopiperidin-1-yl)-6-(4-(hydroxymethyl)piperidine-1-carbonyl)-4-oxothieno[3,2-d]pyrimidin-3(4H)-yl)methyl)benzonitrile], the IC50 stood at 26.9 nM in assay [1] and 43900 nM in assay [3]. The “DPP 7 IC50” value in assay [2] is “N.I”. In assay [4], the “DPP 9 IC50” value is “N.I”.
Take `N#Cc1ccccc1Cn1c(N2CCC[C@@H](N)C2)nc2c(C(=O)NCCCO)csc2c1=O` [Compound 93, (R)-2-(3-aminopiperidin-1-yl)-3-(2-cyanobenzyl)-N-(3-hydroxypropyl)-4-oxo-3,4-dihydrothieno[3,2-d]pyrimidine-7-carboxamide]: the IC50 in assay [1] was found to be 14.8 nM; in assay [3], 60700 nM. Moreover, the “DPP 7 IC50” value in assay [2] was “N.I”. Further, the “DPP 9 IC50” value in assay [4] is reported as “N.I”.
Turning to `CS(=O)(=O)CCNC(=O)c1cc2nc(N3CCC[C@@H](N)C3)n(Cc3ccccc3C#N)c(=O)c2s1` [Compound 126, (R)-2-(3-aminopiperidin-1-yl)-3-(2-cyanobenzyl)-N-(2-(methylsulfonyl)-ethyl)-4-oxo-3,4-dihydrothieno[3,2-d]-pyrimidine-6-carboxamide], the half-maximal inhibitory concentration (IC50) stood at 20.1 nM in assay [1] and 55900 nM in assay [3]. Besides, the “DPP 7 IC50” value in assay [2] is “N.I”. Also, the “DPP 9 IC50” value in assay [4] is “N.I”.
As to `COC(=O)[C@@H]1CCCN1C(=O)c1csc2c(=O)n(Cc3ccccc3C#N)c(N3CCC[C@@H](N)C3)nc12` [Compound 91, (S)-methyl 1-(2-((R)-3-aminopiperidin-1-yl)-3-(2-cyanobenzyl)-4-oxo-3,4-dihydrothieno[3,2-d]pyrimidine-7-carbonyl)pyrrolidine-2-carboxylate], the IC50 in assay [1] was determined as 36.4 nM; in assay [3], 88000 nM. Also, the “DPP 7 IC50” value in assay [2] is given as “N.I”. Moreover, in assay [4], the “DPP 9 IC50” value was “N.I”.
Take `N#Cc1ccccc1Cn1c(N2CCC[C@@H](N)C2)nc2cc(C(=O)N3CCC[C@H]3CO)sc2c1=O` [Compound 128, 2-((2-((R)-3-aminopiperidin-1-yl)-6-((S)-2-(hydroxymethyl)pyrrolidine-1-carbonyl)-4-oxothieno[3,2-d]pyrimidin-3(4H)-yl)methyl)benzonitrile]: the IC50 in assay [1] is 30.7 nM; in assay [3] it was 39000 nM. For the same compound, the “DPP 7 IC50” value in assay [2] is reported as “N.I”. Moreover, in assay [4], the “DPP 9 IC50” value was “N.I”.
In assay [1], `N#Cc1ccccc1Cn1c(N2CCC[C@@H](N)C2)nc2c3c(sc2c1=O)CCCC3` [Compound 27, (R)-2-((2-(3-aminopiperidin-1-yl)-4-oxo-6,7,8,9-tetrahydrobenzo[4,5]thieno-[3,2-d]pyrimidin-3(4H)-yl)methyl)-benzonitrile] yielded an IC50 of 35.5 nM.
Compound `N#Cc1ccccc1Cn1c(N2CCC[C@@H](N)C2)nc2c(Cl)csc2c1=O` [Compound 9, (R)-2-((2-(3-aminopiperidin-1-yl)-7-chloro-4-oxothieno[3,2-d]pyrimidin-3-(4H)-yl)methyl)benzonitrile] displayed an IC50 in assay [1] of 36.8 nM.
Regarding `COC(=O)[C@@H]1CCCN1C(=O)c1cc2nc(N3CCC[C@@H](N)C3)n(Cc3ccccc3C#N)c(=O)c2s1` [Compound 125, (S)-methyl 1-(2-((R)-3-aminopiperidin-1-yl)-3-(2-cyanobenzyl)-4-oxo-3,4-dihydrothieno[3,2-d]pyrimidine-6-carbonyl)pyrrolidine-2-carboxylate], the figures for the IC50 in assay [1], in assay [3] and in assay [4] were 33.8 nM, 15500 nM and 172000 nM, respectively. In assay [2], the “DPP 7 IC50” value was “N.I”.
Regarding `CCOC(=O)CCNC(=O)c1csc2c(=O)n(Cc3ccccc3C#N)c(N3CCC[C@@H](N)C3)nc12` [Compound 88, (R)-ethyl 3-(2-(3-aminopiperidin-1-yl)-3-(2-cyanobenzyl)-4-oxo-3,4-dihydrothieno[3,2-d]pyrimidine-7-carboxamido)propanoate], the half-inhibitory concentration (IC50) in assay [1] was found to be 14.8 nM; in assay [3], 54900 nM. In addition, the “DPP 7 IC50” value in assay [2] is listed as “N.I”. Also, the “DPP 9 IC50” value in assay [4] is “N.I”.
Turning to `N#Cc1ccccc1Cn1c(N2CCC[C@@H](N)C2)nc2cc(C(=O)N[C@H]3CCOC3=O)sc2c1=O` [Compound 127, 2-((R)-3-aminopiperidin-1-yl)-3-(2-cyanobenzyl)-4-oxo-N-((S)-2-oxotetrahydrofuran-3-yl)-3,4-dihydrothieno[3,2-d]pyrimidine-6-carboxamide], the figures for the IC50 in assay [1] and in assay [3] were 24.6 nM and 52700 nM, respectively. Besides, in assay [2], the “DPP 7 IC50” value is reported as “N.I”. Further, the “DPP 9 IC50” value in assay [4] is on record as “N.I”.
For the compound `N#Cc1ccccc1Cn1c(N2CCC[C@@H](N)C2)nc2cc(F)sc2c1=O` [Compound 1, (R)-2-((2-(3-aminopiperidin-1-yl)-6-fluoro-4-oxothieno[3,2-d]pyrimidin-3(4H)-yl)methyl)benzonitrile], in assay [1], 34.7 nM corresponded to half-maximal inhibition (IC50).
Regarding `N#Cc1ccccc1Cn1c(N2CCC[C@@H](N)C2)nc2cc(C(=O)NCCO)sc2c1=O` [Compound 123, (R)-2-(3-aminopiperidin-1-yl)-3-(2-cyanobcnzyl)-N-(2-hydroxyethyl)-4-oxo-3,4-dihydrothieno[3,2-d]-pyrimidine-6-carboxamide], the values for the concentration for half-maximal inhibition (IC50) in assay [1] and in assay [3] were 19.8 nM and 223000 nM, respectively. In addition, the “DPP 7 IC50” value in assay [2] is recorded as “N.I”. Besides, the “DPP 9 IC50” value in assay [4] is given as “N.I”.
The compound `N#Cc1ccccc1Cn1c(N2CCC[C@@H](N)C2)nc2c(Cl)c(Cl)sc2c1=O` [Compound 10, (R)-2-((2-(3-aminopiperidin-1-yl)-6,7-dichloro-4-oxothieno[3,2-d]pyrimidin-3(4H)-yl)methyl)benzonitrile] came in with an IC50 in assay [1] of 90 nM.
Regarding `N#Cc1ccccc1Cn1c(N2CCC[C@@H](N)C2)nc2cc(Cl)sc2c1=O` [Compound 8, (R)-2-((2-(3-aminopiperidin-1-yl)-6-chloro-4-oxothieno[3,2-d]pyrimidin-3 (4H)-yl)methyl)benzonitrile], in assay [1], half-maximal inhibition (IC50) was put at 45.6 nM.
As to `CCOC(=O)CCCNC(=O)c1csc2c(=O)n(Cc3ccccc3C#N)c(N3CCC[C@@H](N)C3)nc12` [Compound 89, (R)-ethyl 4-(2-(3-aminopiperidin-1-yl)-3-(2-cyanobenzyl)-4-oxo-3,4-dihydrothieno[3,2-d]pyrimidine-7-carboxamido)butanoate], the IC50 in assay [1] worked out at 14.3 nM; in assay [3], 39400 nM. For the same compound, the “DPP 7 IC50” value in assay [2] is on record as “N.I”. Also, the “DPP 9 IC50” value in assay [4] is given as “N.I”.
`N#Cc1ccccc1Cn1c(N2CCC[C@@H](N)C2)nc2c(C(=O)N[C@H]3CCOC3=O)csc2c1=O` [Compound 92, 2-((R)-3-aminopiperidin-1-yl)-3-(2-cyanobenzyl)-4-oxo-N-((S)-2-oxotetrahydrofuran-3-yl)-3,4-dihydrothieno[3,2-d]pyrimidine-7-carboxamide]: the results for the IC50 in assay [1] and in assay [3] were 21.7 nM and 76700 nM, respectively. Further, the “DPP 7 IC50” value in assay [2] was “N.I”. The “DPP 9 IC50” value in assay [4] is recorded as “N.I”.
As to `N#Cc1ccccc1Cn1c(N2CCC[C@@H](N)C2)nc2c(CO[C@H]3CCOC3)csc2c1=O` [Compound 87, 2-((2-((R)-3-aminopiperidin-1-yl)-4-oxo-7-((((S)-tetrahydrofuran-3-yl)oxy)methyl)thieno[3,2-d]pyrimidin-3(4H)-yl)methyl)benzonitrile], half-maximal inhibition in assay [1] (IC50) required 26.5 nM. Moreover, the “DPP 7 IC50” value in assay [2] was “N.I”. For the same compound, the “DPP 8 IC50” value in assay [3] is “N.I”. In addition, the “DPP 9 IC50” value in assay [4] is “N.I”.
Compound `N#Cc1ccccc1Cn1c(N2CCC[C@@H](N)C2)nc2c(Br)csc2c1=O` [Compound 4, (R)-2-((2-(3-aminopiperidin-1-yl)-7-bromo-4-oxothieno[3,2-d]pyrimidin-3(4H)-yl)methyl)benzonitrile] returned an IC50 in assay [1] of 8.78 nM.
In turn, `N#Cc1ccccc1Cn1c(N2CCC[C@@H](N)C2)nc2cc(C(Br)Br)sc2c1=O` [Compound 98, (R)-2-((2-(3-aminopiperidin-1-yl)-6-(dibromomethyl)-4-oxothieno[3,2-d]-pyrimidin-3(4H)-yl)methyl)benzonitrile] had a half-maximal inhibitory concentration (IC50) in assay [1] of 9.95 nM. The “DPP 7 IC50” value in assay [2] is recorded as “N.I”.
